A short description of data set [1]: plasma protein binding, human. Format: in vitro ADME. As to conditions: read-out: bound to plasma proteins. Here is the method:
(§1) In embodiments, the apilimod compound for use in the compositions and methods of the invention is the free base or dimesylate salt form, MW 610.7 (dimesylate salt); tPSA 83.1; pKa 5.39 (±0.03), 4.54 (±0.27); HBD 1. […] In embodiments, the apilimod compound for use in the compositions and methods of the invention is an active metabolite of apilimod. Six primary metabolites were identified in rat and human microsomal and hepatocyte stability studies. […] Tmax generally occurred within 1 or 2 hours after the oral dose, consistent with the […] of this compound from the circulation. […] The primary metabolites are short-lived in circulation. Both apilimod free base and the dimesylate salt are highly bound (>99%) to rat, dog and human plasma proteins.

The target of data set [2] is CYP3A4 (Homo sapiens, UniProt P08684). The data set can be described thus: reaction phenotyping studies, CYP3A4. The format is in vitro ADME. Here is the method: as §1
Data set [3] concerns NPC1 fibroblasts. The data set can be described thus: HexB release lysosome exocytosis assay. The format is cell-based, human. As to conditions: 24 hours treatment; FIG. 3. Here is the method: NPC1 mutant patient skin fibroblasts have been used as a robust cellular model of NPC1 disease (Chen 2010, Xu M et al 2012, Xu M et al 2014) and these cells display a number of NPC-related defects including intracellular accumulation of cholesterol other lipids.
FIG. 3: the rate of lysosome exocytosis can be monitored by the measurement of the release of lysosomal proteins such as Hexosaminidase Subunit Beta(HexB). In FIG. 3, NPC1 fibroblasts were treated with apilimod for 24 hours, the HexB release lysosome exocytosis assay was performed as previously described (Xu et al 2012). The rate of HexB release from NPC1 was increased by apilimod treatment providing evidence for an increased rate of lysosome exocytosis likely leading to cholesterol lowering in NPC1 cells.
Shown in the figure are fluorescence microscopy images of the NPC1 cells treated with 0, 78, 156, and 625 nM apilimod. […] In FIG. 3, apilimod treatment of NPC1 fibroblasts can enhance the rate of lysosome exocytosis as one of the mechanisms for cells to clear lysosome storage of cholesterol and lipid accumulations in NPC.

For data set [4], the system named is osteoclast formation. As to conditions: in vitro assay; from WO 2005/000404; read-out: inhibitory activity against osteoclast formation, IC50; cited from earlier work.
Data set [5] can be described thus: plasma protein binding, dog. Format: in vitro ADME. As to conditions: read-out: bound to plasma proteins. Here is the method:
as §1

A short description of data set [6]: plasma protein binding, rat. The format is in vitro ADME. Here is the method: as §1

Chain of CYP3A4 (P08684 whole entry): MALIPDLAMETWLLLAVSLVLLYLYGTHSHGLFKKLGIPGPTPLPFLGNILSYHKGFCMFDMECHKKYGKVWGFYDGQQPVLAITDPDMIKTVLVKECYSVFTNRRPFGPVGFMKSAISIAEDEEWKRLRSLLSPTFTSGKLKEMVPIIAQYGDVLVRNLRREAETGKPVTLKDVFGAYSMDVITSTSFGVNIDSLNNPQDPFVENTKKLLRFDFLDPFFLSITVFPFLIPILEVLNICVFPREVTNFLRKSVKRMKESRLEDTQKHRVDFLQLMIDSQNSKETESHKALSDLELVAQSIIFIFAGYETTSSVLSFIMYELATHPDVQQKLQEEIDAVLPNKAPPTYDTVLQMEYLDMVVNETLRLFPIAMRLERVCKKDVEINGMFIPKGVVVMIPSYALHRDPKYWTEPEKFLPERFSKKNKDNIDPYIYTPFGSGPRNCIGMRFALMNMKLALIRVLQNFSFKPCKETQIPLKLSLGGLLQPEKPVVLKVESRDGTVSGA

One may read the IC50 as the concentration at which inhibition is half-maximal. As for `Cc1cccc(/C=N/Nc2cc(N3CCOCC3)nc(OCCc3ccccn3)n2)c1` [apilimod], the fraction unbound in data set [1], in data set [5] and in data set [6] was less than 0.01 in each case. Moreover, the “contribution of CYP3A4 to metabolism” value in data set [2] is “contribute to metabolism”. Further, the “rate of HexB release (lysosome exocytosis)” value in data set [3] is given as “increased”. In addition, the IC50 in data set [4] was 15 nM.
